Measured values taken from patent US20220193070A1, “METHODS FOR TREATING ABSENCE SEIZURES” (XENON PHARMACEUTICALS INC., priority 2020, published 2022).
Marks after values point to notes of the source that are not given here.

How the values were obtained:
[1] = Open-label clinical study: safety, tolerability and questionnaires
absence seizures [2] = assay: Open-label clinical study: absence seizure frequency from patient seizure diaries; assay type: in vivo, human
Text: Seizure frequency is documented via seizure diaries and side effects and safety are closely monitored. This study informs the feasibility and utility of conducting a larger clinical trial.
Objectives: The primary objective is to assess the efficacy, safety and tolerability of flunarizine compared to a baseline period on absence seizures in patients with treatment refractory generalized epilepsy taking a minimum of one anti-seizure medication (ASM).
This is an open-label, single-centre study to evaluate the clinical efficacy, safety and tolerability of flunarizine administered as adjunctive treatment in participants diagnosed with treatment resistant absence epilepsy. The study includes 20 participants.
Inclusion Criteria: Participants eligible for this study meet all of the following criteria: • 1. Participant is 4 to 18 years of age • 2. Participant has treatment resistant absence seizures. Treatment resistant absence seizures are defined as failure to respond to […] appropriate anti-seizure medications (ASMs). […] Participant must currently be taking a minimum of one ASM • 4. Normal development (may have specific learning disabilities and/or ADHD/ADD) • 5. EEG confirmation of absence seizures and EEG within 2 months of screening visit • 6. Absence seizures reported at least 10 times per week • 7. Participants must have no changes in baseline ASMs for 1 month prior to screening period • 8. Participant or caregiver can maintain a seizure diary • 9. Participant is able to swallow capsules • 10. Written informed consent must be provided. Legal guardians of the participants must be able to understand and provide written consent on behalf of the participant, since study participants may be too young to provide informed consent. For participants 7-18 years of age, assent is required along with written informed consent of the caregiver. • 11. The participant is willing and able to attend all study visits • 12. Participant has the ability to speak and read in English • 13. Females of child bearing potential who are sexually active must be willing to use contraceptive methods for the duration of the study and 6 months post last dose of study drug. • 14. Males who are sexually active with females of child bearing potential must be willing to use contraception for the duration of the study and 3 months post last dose of study drug.
The initial dose of flunarizine at Visit 2 is 5 mg/day taken at night. The dose is taken orally as one 5 mg capsule. In order to optimize response to treatment, dose escalation, at the discretion of the investigator, is performed at Visit 3. If the 5 mg/day dose is tolerated by any given participant, the dose is escalated to 10 mg/day taken as two 5 mg capsules. […] The investigator uses discretion to maintain or adjust the dose level based on the study participant's tolerability and clinical response, alongside other medical considerations. If deemed necessary by the investigator, the 10 mg dose is be split into morning and evening doses to reduce minor side effects.
At the screening visit, the seizure history is assessed using detailed parental interviews and chart review. The investigator takes the participant's medical history (including date of seizure onset date of epilepsy diagnosis). The participant's vital signs (temperature, blood pressure and heart rate), height and weight are recorded.

absence seizures [3] = assay: Open-label clinical study: number of absence seizures during EEG; assay type: in vivo, human; design: reduction of absence seizures on EEG: concentration or dose not given beside the values
Text: The secondary objectives are to evaluate EEG changes in patients with absence epilepsy; to evaluate changes in quality of life for patients; and to evaluate global impression change and clinical impression of change. The secondary outcome measures include median percent change in the number of absence seizures on EEG, and bursts of spike/wave lasting 2 or more seconds in patients treated with flunarizine compared with the baseline period; Clinical and Patient Global Impression of Change scores during the flunarizine treatment period; median percent change in weekly absence seizure frequency from baseline compared to end of study period; and median percent change in weekly absence seizure frequency from flunarizine treatment period.

## Fc1ccc(C(c2ccc(F)cc2)N2CCN(C/C=C/c3ccccc3)CC2)cc1 [Flunarizine, 1-[bis(4-fluorophenyl)methyl]-4-cinnamyl-piperazine]
[1]; human, in vivo
  Depressive symptoms and somnolence: not observed in any patient
[1]; patients 4 to 18 years, 5 or 10 mg/day oral
  tolerability: well tolerated
[1]; resulting in medication discontinuation
  side effect: weight gain as the only side effect in one patient
Absence seizures [2]; 2 of the 3 CAE patients
  reduction in diary recorded seizures: > 80%
Absence seizures [2]; Patient 1, Jeavons, 10 mg daily, current ASMs VPA, CLON, baseline 409 per month
  Seizure Frequency at visit 5: 608
Absence seizures [2]; Patient 1, Jeavons, 10 mg daily, printed as Increase
  % Reduction in Seizures: ~50%
Absence seizures [2]; Patient 3, CAE, 10 mg daily
  % Reduction in Seizures: 85%
Absence seizures [2]; Patient 3, CAE, 10 mg daily, current ASMs LTG, ESM, ketogenic diet, baseline 41 per month
  Seizure Frequency at visit 5: 6
Absence seizures [2]; Patient 4, CAE, 10 mg daily
  % Reduction in Seizures: 57%
Absence seizures [2]; Patient 4, CAE, 10 mg daily, current ASM LTG, baseline 79 per month
  Seizure Frequency at visit 5: 34
Absence seizures [2]; Patient 5, CAE, 5 mg daily
  % Reduction in Seizures: 83%
Absence seizures [2]; Patient 5, CAE, 5 mg daily, current ASM VPA, baseline 54 per month
  Seizure Frequency at visit 5: 9
Absence seizures [2]; all 3 CAE patients
  reduction in diary recorded seizures: > 50%
Absence seizures [2]; one of the two patients with Jeavons Syndrome
  change in seizures: increased seizures
Absence seizures [2]; the other patient with Jeavons Syndrome
  study termination: terminated within one week due to increase in seizures
Absence seizures [2]; the two patients with Jeavons Syndrome
  response to flunarizine: did not respond
Absence seizures [3]; 2 of the three CAE subjects
  absence seizures on EEG: resolution of absence seizures
Absence seizures [3]; Patient 1 (Jeavons)
  % Reduction in Seizures (EEG): 11%
Absence seizures [3]; Patient 1 (Jeavons), baseline 9
  Number of Absence Seizures during EEG, Visit 5: 8
Absence seizures [3]; Patient 3 (CAE)
  % Reduction in Seizures (EEG): 94%
Absence seizures [3]; Patient 3 (CAE), baseline 16
  Number of Absence Seizures during EEG, Visit 5: 1
Absence seizures [3]; Patient 4 (CAE)
  % Reduction in Seizures (EEG): 100%
Absence seizures [3]; Patient 4 (CAE), baseline 7
  Number of Absence Seizures during EEG, Visit 5: 0
Absence seizures [3]; Patient 5 (CAE)
  % Reduction in Seizures (EEG): 100%
Absence seizures [3]; Patient 5 (CAE), baseline 5
  Number of Absence Seizures during EEG, Visit 5: 0
Absence seizures [3]; Patient 6 (JAE), 10 mg
  % Reduction in Seizures (EEG): 50 to 100%***
Absence seizures [3]; Patient 6 (JAE), 10 mg, baseline 6
  Number of Absence Seizures during EEG, Visit 5: 3
Absence seizures [3]; one of the three CAE subjects
  reduction of absence seizures on EEG: 94%
Absence seizures [3]; single JAE subject
  reduction in seizures, EEG data: 50 to 100%
